Data from the supplement of paper PMC12076712.

How the values were obtained:
Assay in all cases: pIC50, kinobeads binding competition
Conditions in all cases: cell material: Jurkat lysate
BRSK1 = biological target: T1, BRSK1 (UniProt Q8TDC3)
T1 sequence (whole entry): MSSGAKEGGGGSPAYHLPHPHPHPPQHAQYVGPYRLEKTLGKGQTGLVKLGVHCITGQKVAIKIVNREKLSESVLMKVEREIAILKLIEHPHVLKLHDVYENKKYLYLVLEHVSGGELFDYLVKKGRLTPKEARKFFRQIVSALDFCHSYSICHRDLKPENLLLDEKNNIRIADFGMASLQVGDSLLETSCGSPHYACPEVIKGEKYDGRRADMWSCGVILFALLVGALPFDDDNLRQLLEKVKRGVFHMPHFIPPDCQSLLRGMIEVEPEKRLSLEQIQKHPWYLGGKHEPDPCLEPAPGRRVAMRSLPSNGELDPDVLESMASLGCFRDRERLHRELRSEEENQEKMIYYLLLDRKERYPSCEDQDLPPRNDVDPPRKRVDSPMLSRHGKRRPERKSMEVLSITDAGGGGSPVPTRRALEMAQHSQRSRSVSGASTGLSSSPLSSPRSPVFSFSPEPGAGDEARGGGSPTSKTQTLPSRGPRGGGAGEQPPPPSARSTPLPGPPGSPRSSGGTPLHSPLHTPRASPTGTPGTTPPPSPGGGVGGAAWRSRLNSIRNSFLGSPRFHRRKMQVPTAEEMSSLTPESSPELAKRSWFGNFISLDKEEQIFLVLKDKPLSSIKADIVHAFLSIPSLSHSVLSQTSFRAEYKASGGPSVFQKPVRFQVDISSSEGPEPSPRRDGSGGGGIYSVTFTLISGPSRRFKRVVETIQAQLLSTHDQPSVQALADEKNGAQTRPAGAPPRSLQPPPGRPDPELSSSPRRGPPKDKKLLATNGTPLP

UniProt O15111 = biological target: T2, UniProt O15111
T2 sequence (whole entry): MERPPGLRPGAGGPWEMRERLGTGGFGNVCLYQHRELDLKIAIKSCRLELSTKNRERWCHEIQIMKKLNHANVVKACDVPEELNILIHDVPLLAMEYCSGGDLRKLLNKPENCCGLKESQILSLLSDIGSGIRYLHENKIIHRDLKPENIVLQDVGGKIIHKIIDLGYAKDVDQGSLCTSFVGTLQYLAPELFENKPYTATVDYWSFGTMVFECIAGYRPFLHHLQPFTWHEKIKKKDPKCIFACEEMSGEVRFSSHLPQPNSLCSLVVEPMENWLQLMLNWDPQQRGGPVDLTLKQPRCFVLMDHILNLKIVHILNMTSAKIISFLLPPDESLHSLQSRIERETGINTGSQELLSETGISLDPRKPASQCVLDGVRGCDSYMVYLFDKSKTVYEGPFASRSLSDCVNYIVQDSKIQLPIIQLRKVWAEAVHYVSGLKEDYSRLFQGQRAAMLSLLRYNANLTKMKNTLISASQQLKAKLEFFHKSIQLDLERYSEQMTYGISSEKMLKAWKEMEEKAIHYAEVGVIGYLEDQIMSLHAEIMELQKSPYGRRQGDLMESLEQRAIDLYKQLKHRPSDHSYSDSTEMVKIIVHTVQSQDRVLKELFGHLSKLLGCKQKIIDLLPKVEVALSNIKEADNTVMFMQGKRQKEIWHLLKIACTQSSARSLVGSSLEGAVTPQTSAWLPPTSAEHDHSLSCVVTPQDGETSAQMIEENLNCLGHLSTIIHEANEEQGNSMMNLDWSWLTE

UniProt O75582 = biological target: UniProt O75582
Sequence of UniProt O75582 (O75582 whole entry, looked up): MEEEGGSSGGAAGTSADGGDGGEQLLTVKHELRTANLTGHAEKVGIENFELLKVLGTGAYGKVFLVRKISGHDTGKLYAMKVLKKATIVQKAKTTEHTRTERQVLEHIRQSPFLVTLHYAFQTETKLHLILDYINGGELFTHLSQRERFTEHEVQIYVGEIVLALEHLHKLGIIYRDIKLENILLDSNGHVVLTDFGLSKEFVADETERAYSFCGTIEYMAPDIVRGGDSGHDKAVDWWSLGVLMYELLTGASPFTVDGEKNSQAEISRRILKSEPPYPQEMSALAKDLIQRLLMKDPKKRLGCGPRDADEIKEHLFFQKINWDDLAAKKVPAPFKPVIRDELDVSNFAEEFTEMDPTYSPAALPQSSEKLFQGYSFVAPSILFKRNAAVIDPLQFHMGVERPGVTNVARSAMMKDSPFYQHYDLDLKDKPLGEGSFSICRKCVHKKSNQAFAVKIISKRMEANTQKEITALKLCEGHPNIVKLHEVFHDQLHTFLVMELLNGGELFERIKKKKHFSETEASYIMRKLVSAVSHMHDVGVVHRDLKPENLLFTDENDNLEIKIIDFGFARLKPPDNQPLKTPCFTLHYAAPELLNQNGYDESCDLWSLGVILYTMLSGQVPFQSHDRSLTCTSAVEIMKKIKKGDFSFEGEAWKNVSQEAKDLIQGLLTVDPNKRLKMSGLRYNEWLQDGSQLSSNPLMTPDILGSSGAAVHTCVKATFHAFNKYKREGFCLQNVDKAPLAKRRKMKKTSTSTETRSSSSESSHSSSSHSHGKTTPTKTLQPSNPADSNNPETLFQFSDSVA

SRPK2 = SRPK2 (UniProt P78362)
Sequence of SRPK2 (P78362 whole entry, looked up): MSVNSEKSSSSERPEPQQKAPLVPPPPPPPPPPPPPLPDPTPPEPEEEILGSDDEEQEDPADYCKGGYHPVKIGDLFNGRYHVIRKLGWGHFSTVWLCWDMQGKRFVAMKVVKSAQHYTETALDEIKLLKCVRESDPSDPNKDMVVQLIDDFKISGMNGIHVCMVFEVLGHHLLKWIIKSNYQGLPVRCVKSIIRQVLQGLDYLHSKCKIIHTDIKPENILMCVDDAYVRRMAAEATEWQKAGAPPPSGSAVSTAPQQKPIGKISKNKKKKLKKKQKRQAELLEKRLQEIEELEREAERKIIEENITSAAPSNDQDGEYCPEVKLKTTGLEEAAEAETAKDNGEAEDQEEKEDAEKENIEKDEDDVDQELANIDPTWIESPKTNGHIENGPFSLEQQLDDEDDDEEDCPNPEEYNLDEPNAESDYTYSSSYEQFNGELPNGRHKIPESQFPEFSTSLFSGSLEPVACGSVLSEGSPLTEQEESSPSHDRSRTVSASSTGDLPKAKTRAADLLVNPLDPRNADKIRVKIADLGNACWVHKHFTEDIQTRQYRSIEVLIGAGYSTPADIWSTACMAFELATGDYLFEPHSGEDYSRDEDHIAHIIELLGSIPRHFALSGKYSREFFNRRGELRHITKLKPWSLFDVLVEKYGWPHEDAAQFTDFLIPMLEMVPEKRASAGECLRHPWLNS

CAMK4 = biological target: T3, CAMK4 (UniProt Q16566)
T3 sequence (whole entry): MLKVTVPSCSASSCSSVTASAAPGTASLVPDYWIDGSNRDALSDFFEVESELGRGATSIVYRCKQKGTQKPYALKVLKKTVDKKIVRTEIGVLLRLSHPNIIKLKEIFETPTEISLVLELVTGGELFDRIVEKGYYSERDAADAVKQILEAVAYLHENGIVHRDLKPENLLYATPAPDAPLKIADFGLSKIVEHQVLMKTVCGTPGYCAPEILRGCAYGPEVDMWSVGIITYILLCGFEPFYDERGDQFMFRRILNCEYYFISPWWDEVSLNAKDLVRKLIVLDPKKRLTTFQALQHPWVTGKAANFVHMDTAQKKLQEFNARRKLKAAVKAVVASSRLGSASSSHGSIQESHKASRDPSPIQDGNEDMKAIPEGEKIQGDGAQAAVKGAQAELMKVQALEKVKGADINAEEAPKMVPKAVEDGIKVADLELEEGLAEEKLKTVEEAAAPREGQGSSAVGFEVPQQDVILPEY

UniProt P27448 = biological target: UniProt P27448
Sequence of UniProt P27448 (P27448 whole entry, looked up): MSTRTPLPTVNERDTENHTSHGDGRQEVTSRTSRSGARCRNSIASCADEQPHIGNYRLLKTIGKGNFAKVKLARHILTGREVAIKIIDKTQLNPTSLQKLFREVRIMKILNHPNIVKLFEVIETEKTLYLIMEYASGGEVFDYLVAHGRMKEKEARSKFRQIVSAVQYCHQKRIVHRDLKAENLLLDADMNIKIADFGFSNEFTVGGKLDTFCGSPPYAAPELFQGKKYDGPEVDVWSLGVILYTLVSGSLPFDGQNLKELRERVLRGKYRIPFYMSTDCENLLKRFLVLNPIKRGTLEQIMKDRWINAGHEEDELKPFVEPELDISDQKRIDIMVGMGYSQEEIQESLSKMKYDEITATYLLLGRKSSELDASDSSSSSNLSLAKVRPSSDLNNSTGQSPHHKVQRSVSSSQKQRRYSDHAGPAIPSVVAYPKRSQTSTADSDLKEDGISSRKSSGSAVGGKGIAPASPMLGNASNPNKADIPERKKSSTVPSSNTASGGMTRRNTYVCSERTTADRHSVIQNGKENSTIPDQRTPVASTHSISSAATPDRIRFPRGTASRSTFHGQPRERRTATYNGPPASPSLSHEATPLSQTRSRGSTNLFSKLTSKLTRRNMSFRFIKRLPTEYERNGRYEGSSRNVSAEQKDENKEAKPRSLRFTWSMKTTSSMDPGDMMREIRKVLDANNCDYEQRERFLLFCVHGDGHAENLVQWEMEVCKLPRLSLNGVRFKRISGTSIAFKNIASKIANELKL

AKT1 = AKT1 (UniProt P31749)
Sequence of AKT1 (P31749 whole entry): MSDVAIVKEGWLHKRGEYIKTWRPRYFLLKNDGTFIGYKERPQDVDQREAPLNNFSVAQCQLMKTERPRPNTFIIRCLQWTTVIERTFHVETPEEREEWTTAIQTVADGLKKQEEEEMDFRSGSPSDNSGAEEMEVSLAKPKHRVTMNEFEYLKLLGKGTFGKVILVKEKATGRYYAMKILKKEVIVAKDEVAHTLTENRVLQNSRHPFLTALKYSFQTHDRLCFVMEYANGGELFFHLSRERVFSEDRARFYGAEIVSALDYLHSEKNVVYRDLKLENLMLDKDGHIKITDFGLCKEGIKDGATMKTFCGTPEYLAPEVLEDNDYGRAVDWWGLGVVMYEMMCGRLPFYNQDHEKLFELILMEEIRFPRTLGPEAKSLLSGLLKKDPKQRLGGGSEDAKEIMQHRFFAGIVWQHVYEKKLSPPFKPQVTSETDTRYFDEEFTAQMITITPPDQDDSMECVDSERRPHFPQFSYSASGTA

MARK4 = biological target: T4, MARK4 (UniProt Q96L34)
T4 sequence (whole entry): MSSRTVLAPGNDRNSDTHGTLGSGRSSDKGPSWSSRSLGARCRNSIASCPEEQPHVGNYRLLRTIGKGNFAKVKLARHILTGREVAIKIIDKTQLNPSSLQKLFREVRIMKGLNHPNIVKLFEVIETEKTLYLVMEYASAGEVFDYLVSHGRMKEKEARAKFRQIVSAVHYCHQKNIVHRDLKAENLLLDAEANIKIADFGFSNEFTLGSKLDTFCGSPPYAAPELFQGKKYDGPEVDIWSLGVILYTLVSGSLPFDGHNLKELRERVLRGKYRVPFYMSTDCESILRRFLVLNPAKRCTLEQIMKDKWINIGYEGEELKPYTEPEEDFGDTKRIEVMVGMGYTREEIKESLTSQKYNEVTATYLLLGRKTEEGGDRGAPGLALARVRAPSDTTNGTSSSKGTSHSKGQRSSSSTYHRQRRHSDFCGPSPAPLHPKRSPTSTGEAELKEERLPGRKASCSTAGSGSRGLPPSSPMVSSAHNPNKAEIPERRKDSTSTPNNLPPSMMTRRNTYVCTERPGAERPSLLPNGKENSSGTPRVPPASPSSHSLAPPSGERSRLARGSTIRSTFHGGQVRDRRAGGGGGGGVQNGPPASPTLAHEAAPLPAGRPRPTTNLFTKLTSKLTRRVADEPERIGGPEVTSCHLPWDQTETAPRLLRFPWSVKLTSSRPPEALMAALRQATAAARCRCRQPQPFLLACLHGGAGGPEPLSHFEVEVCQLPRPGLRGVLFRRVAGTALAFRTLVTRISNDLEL

pIC50 (BRSK1): < 4.52
pIC50 (UniProt O15111): < 4.52
pIC50 (UniProt O75582): < 4.52
pIC50 (SRPK2): < 4.52
pIC50 (CAMK4): < 4.52
pIC50 (UniProt P27448): < 4.52
pIC50 (AKT1): < 4.52
pIC50 (MARK4): < 4.52
Compound: CCc1cnn2c(NCc3ccc[n+]([O-])c3)cc(N3CCCC[C@H]3CCO)nc12 [dinaciclib]
